Measurements: US11141495B2, “MRI imaging of amyloid plaque using liposomes” (Texas Children's Hospital, priority 2014, dated 2021)
Like-named read-outs stand apart in the source and are kept apart here.

Experiments:
Aβ(1-40) fibrils [1] = target: T1, Aβ(1-40) fibrils (Homo sapiens, UniProt P05067); experiment: Competitive binding assay to fibrils versus Chrysamine G; conditions: for % bound to fibrils in competition with Chrysamine-G: Chrysamine-G concentration of 1 μM, 20 μM fibrils, 1.0 μM test compound
T1 construct: Aβ(1-40) peptide (rPeptide, Bogart, Ga.); purchased rPeptide, Bogart, Ga
T1 sequence (P05067 672-711): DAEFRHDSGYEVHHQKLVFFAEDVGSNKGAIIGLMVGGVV
Experimental: (§1) Aβ fibrils were synthesized according to the method of Klunk et al. Ann Neurol, 2004; 55: 306-19, the entire teachings of which are incorporated herein by reference. Briefly, Aβ(1-40) peptide (rPeptide, Bogart, Ga.) was dissolved in phospho-buffered saline, pH 7.4 to a final concentration of 433 μg/mL (100 μM). The solution was stirred using a magnetic stir bar at 700 rpm for 4 h at room temperature to drive the formation of fibrils. The stock solution was aliquoted and stored at −80° C. for future use. The stock solutions were stirred thoroughly before removing aliquots for binding assays to maintain a homogenous suspension of fibrils. […]
(§2) Binding assay: The binding affinity of the compounds or compound-labeled liposomes with the amyloid fibrils was measured by following methods. Ligand-labeled liposomes, ligand stock solutions, and Chrysamine G fix competition assays were diluted with […] to 500 nM. Fibril stock solution was mixed with a stock solution of the compound or the compound-labeled liposomes in a 200 μL reaction mix to give a final concentration of fibrils (20 μM) with test compounds varying from 0.0625-20 μM. The binding mixture was incubated at room temperature for 1 h. Subsequently, the incubated binding mixture was centrifuged for 20 min at 16,400 rpm to separate the fibrils. The fibril precipitate was washed twice with Tris-HCl. Fluorescence was then measured in a Filter Max F-5 multi-mode plate reader (Molecular Devices, Sunnyvale, Calif.), using excitation and emission wavelengths of 405 nm and 535 nm, respectively. Competitive binding assays used 20 μM of fibrils, 1.0 μM test compounds and varying amounts of the non-fluorescent competitor, Chrysamine G and incubated for 1 h.

Aβ(1-40) fibrils [2] = target: T1, Aβ(1-40) fibrils; experiment: Binding assay of compounds or compound-labeled liposomes with amyloid fibrils (fluorescence of washed fibrils); conditions: for binding to fibrils, relative fluorescence unit: at a concentration of 1 μM
Experimental: as §1, §2
FIG. 7B is a graph showing fibril binding data and a calculated fit for estimation of the binding constant far Compound ii to fibrils at Kd=5.0 μM. FIG. 7C is a graph showing fibril binding data and a calculated fit for estimation of the binding constant for Compound iii to fibrils at Kd=5.0 μM. […] Binding to fibrils was quantified by measuring the fluorescence of the respective binding agent to washed fibrils. The data was fitted to a monolayer binding equation; Kd=1/Kb.

amyloid plaques = experiment: Fluorescent staining of human AD frontal cortex tissue sections; conditions: frontal cortex of an AD autopsy case; 1 mM, 2 hours
Experimental: (§3) Compound iii solutions in PBS were incubated with frontal cortex tissue obtained from autopsy of an AD patient (the University of Kentucky Institutional Review Board approved the use of human tissue for the study; informed consent was obtained prior to autopsy) and a 12.3 year old canine. Both the human and canine tissues had Alzheimer's amyloid pathology confirmed from previous studies. 50 μm thick free-floating sections were mounted on slides and allowed to dry overnight. Slides were then washed in PBS (3×5 min) and incubated in Compound iii solution (1 mM) for 2 hours and then again washed 3×5 min in PBS, and coverslipped in Vectashield mounting medium with […] (Vector Laboratories, Burlingame, Calif.). Sections were imaged on an Olympus BX-51 microscope with a broadpass filter (Olympus Corporation of the Americas, Center Valley, Pa.).

[3] = test system: cerebral amyloid angiopathy; experiment: Fluorescent staining of aged dog frontal cortex tissue sections; conditions: 12.3 year old canine, 1 mM, 2 hours
Experimental: as §3

Compound	bound species displaced by Chrysamine G (Aβ(1-40) fibrils [1])	% bound to fibrils in competition with Chrysamine-G (Aβ(1-40) fibrils [1])	binding to fibrils, relative fluorescence unit (Aβ(1-40) fibrils [2]; 20 μM fibrils)	Kd (Aβ(1-40) fibrils [2]; 20 μM fibrils, read-out: Kd, binding constant to fibrils (calculated fit, monolayer binding equation))	staining of amyloid plaques in human brain tissue (amyloid plaques)	labeling of cerebral amyloid angiopathy in aged dog brain tissue [3]	Kd (Aβ(1-40) fibrils [2])
COc1cc(/C=C/c2ccc(O)cc2)ccc1/C=C/c1ccc(O)cc1 [MeXO4, reference compound]	> 80%	about 20%	less than 100 k RFU				
CN(CCO)c1ccc(/C=C/c2ccncn2)cc1 [Compound ii, (E)-2-{methyl[4-(2-(pyrimidin-4-yl)vinyl)phenyl]amino}ethanol]		about 45%	35 m RFU	5 µM			
OCCN(CCO)c1ccc(/C=C/c2ccncn2)cc1 [Compound iii, (E)-2,2′-{[4-(2-(pyrimidin-4-yl)vinyl)phenyl]azanediyl}diethanol]		about 55%	400 k RFU		specifically stains amyloid plaques	labels cerebral amyloid angiopathy	5 µM
